In PubChem BioAssay (NCI):
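Compound exposure: 48 hours, 5 concentrations, 96-well plates. At the TGI there is no net growth.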

Columns and labels:
Assay in all cases: growth of human tumour cells (NCI), 48 h
SN12C renal = system: SN12C renal
MALME-3M melanoma = system: MALME-3M melanoma
A549 NSCLC = system: A549 NSCLC
RPMI-8226 leukemia = system: RPMI-8226 leukemia
NCI-H226 lung = system: NCI-H226 lung
SNB-19 CNS = system: SNB-19 CNS
DU-145 prostate = system: DU-145 prostate
LOX IMVI melanoma = system: LOX IMVI melanoma
SK-MEL-5 melanoma = system: SK-MEL-5 melanoma
KM12 colon = system: KM12 colon
HOP-92 NSCLC = system: HOP-92 NSCLC
HCT-15 colon = system: HCT-15 colon
UO-31 renal = system: UO-31 renal
HS 578T breast = system: HS 578T breast
MDA-N = system: MDA-N
RXF 393 renal = system: RXF 393 renal
SW-620 colon = system: SW-620 colon
786-0 renal = system: 786-0 renal
SK-MEL-28 melanoma = system: SK-MEL-28 melanoma
IGROV1 ovarian = system: IGROV1 ovarian
BT-549 breast = system: BT-549 breast
MDA-MB-231 breast = system: MDA-MB-231 breast
SR leukemia = system: SR leukemia
K-562 leukemia = system: K-562 leukemia
SF-295 CNS = system: SF-295 CNS
HOP-62 NSCLC = system: HOP-62 NSCLC
NCI-H23 lung = system: NCI-H23 lung
MDA-MB-435 = system: MDA-MB-435
HL-60(TB) leukemia = system: HL-60(TB) leukemia
NCI-H460 lung = system: NCI-H460 lung
T-47D breast = system: T-47D breast
OVCAR-8 ovarian = system: OVCAR-8 ovarian
HCT-116 colon = system: HCT-116 colon
COLO 205 colon = system: COLO 205 colon
M14 melanoma = system: M14 melanoma
TK-10 renal = system: TK-10 renal
EKVX NSCLC = system: EKVX NSCLC
UACC-257 melanoma = system: UACC-257 melanoma
CAKI-1 renal = system: CAKI-1 renal
SK-OV-3 ovarian = system: SK-OV-3 ovarian
HT29 colon = system: HT29 colon
A498 renal = system: A498 renal
SF-268 CNS = system: SF-268 CNS
OVCAR-4 ovarian = system: OVCAR-4 ovarian
UACC-62 melanoma = system: UACC-62 melanoma
U251 CNS = system: U251 CNS
SK-MEL-2 melanoma = system: SK-MEL-2 melanoma
MOLT-4 leukemia = system: MOLT-4 leukemia
NCI/ADR-RES ovarian = system: NCI/ADR-RES ovarian
ACHN renal = system: ACHN renal
CCRF-CEM leukemia = system: CCRF-CEM leukemia
MCF7 breast = system: MCF7 breast
NCI-H522 lung = system: NCI-H522 lung
HCC-2998 colon = system: HCC-2998 colon
OVCAR-5 ovarian = system: OVCAR-5 ovarian
PC-3 prostate = system: PC-3 prostate
OVCAR-3 ovarian = system: OVCAR-3 ovarian
SNB-75 CNS = system: SNB-75 CNS
SF-539 CNS = system: SF-539 CNS

Measured: TGI

O=C1c2ccccc2C(=O)N1CCSCC(CO)SCCN1C(=O)c2ccccc2C1=O (centres undefined)
50.5 µM: HL-60(TB) leukemia
not listed: OVCAR-3 ovarian | SNB-75 CNS | SF-539 CNS
> 100 µM: all other assays above

CC(O)C1(CNc2cc(Cl)nc(N)n2)CCCCC1 (centres undefined)
not listed: HCC-2998 colon
> 100 µM: all other assays above
